ChEMBL document CHEMBL1201862, “PubChem BioAssay data set” (2004)
The source made the active and inactive calls.

Legend:
[1] = target: T1, Histone-lysine N-methyltransferase NSD2 (Homo sapiens, UniProt O96028); assay type: biochemical
T1 sequence (O96028 whole entry): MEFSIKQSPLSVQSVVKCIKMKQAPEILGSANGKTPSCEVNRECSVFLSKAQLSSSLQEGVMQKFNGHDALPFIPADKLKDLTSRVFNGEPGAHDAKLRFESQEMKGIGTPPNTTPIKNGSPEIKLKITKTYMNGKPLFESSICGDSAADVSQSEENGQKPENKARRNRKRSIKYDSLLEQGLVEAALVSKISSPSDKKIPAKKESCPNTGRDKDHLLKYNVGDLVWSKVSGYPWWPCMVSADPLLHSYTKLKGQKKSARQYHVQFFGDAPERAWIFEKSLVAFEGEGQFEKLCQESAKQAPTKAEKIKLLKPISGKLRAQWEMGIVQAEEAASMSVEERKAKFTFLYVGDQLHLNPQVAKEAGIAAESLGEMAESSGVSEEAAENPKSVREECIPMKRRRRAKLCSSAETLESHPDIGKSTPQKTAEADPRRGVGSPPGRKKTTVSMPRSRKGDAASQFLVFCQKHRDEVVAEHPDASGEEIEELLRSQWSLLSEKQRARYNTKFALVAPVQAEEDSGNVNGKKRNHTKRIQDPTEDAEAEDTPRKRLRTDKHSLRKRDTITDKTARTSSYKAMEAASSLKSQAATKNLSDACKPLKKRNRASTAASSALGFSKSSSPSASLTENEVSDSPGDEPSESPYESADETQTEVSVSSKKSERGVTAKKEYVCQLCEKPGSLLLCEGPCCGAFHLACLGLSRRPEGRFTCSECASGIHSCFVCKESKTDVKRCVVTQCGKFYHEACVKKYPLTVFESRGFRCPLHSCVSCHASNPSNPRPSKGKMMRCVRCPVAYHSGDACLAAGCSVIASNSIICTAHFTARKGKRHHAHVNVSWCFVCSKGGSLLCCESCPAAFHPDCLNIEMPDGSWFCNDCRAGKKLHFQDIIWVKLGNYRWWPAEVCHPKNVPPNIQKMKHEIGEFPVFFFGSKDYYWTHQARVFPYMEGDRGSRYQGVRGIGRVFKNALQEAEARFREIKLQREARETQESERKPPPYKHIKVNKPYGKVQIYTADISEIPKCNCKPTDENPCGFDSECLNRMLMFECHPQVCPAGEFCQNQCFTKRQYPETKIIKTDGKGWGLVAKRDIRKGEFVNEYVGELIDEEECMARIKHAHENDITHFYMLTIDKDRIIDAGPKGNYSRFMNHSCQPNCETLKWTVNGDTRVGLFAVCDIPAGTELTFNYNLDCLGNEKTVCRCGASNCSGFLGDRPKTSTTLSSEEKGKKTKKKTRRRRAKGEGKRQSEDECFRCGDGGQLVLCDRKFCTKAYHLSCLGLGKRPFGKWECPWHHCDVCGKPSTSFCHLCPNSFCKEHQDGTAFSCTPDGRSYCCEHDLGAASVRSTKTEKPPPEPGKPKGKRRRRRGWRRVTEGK

[2] = target: T2, Rac GTPase-activating protein 1 (Homo sapiens, UniProt Q9H0H5); test: blockers of MgcRacGAP-driven Rac1 GTP hydrolysis – biochemical, ADP Hunter fluorescence, primary and confirmatory, confirmation (AID 624330); assay type: functional
T2 sequence (Q9H0H5 whole entry): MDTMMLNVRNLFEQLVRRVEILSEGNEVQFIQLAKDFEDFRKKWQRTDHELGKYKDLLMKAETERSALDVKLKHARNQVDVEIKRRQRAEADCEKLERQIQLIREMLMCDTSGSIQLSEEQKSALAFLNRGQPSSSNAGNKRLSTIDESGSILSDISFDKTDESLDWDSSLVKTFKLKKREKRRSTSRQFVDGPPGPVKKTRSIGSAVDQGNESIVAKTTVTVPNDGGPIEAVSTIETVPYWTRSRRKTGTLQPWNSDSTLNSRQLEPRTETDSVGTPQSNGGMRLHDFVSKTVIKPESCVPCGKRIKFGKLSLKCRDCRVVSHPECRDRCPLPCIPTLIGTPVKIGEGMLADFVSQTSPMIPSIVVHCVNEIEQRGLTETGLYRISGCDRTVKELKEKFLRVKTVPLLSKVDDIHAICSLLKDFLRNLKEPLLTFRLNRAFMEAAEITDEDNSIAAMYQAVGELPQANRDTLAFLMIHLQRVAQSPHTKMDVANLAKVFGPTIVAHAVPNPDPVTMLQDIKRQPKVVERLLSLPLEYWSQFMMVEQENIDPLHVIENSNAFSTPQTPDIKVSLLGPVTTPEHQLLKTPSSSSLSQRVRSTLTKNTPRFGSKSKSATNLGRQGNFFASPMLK

P388/ADR = test: cells; assay type: functional
P388 = test: cells; assay type: functional
SN12K1 = test: cells; assay type: functional
[3] = target: T3, Carboxy-terminal domain RNA polymerase II polypeptide A small phosphatase 1 (Homo sapiens, UniProt Q9GZU7); test: CTDSP1 inhibitors, concentration-response, biochemical, absorbance readout, ultra-high-throughput screen actives (AID 540297); assay type: functional
T3 sequence (Q9GZU7 whole entry): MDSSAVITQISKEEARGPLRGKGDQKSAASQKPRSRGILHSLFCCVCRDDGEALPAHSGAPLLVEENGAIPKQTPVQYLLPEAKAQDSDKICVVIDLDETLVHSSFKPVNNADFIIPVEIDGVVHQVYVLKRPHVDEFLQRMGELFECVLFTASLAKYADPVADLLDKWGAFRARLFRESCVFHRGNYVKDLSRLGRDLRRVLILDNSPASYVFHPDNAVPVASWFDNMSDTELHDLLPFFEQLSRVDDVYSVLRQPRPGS

[4] = Trypanosoma cruzi growth suppression in host cells – NIH3T3 host cells, beta-gal luminescence, confirmation (AID 2044); assay type: functional, cell-based;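 further: intracellular parasites grown in NIH/3T3 mouse fibroblasts as host cells; luminescent beta-galactosidase reporter signal from transgenic T. cruzi replicating inside host cells; inhibitors lower the luminescence signal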
[5] = NIH3T3 cell viability loss – ATP luminescence, mouse fibroblasts, counter-screen, dose response (AID 2010); assay type: functional, cell-based;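 further: cells exposed to compound for about 90 hours before reading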
BJ [6] = test: cells; assay type: functional, cell-based; conditions: Homo sapiens
BJ [7] = test: BJ-TERT-LT-ST fibroblast viability loss – cell-based, RAS-independent, luminescence, dose response (AID 1935); assay type: functional; conditions: Homo sapiens;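 further: BJ fibroblasts immortalized with TERT plus LT and ST oncogenes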
BJ [8] = test: BJ-TERT fibroblast viability loss – cell-based, RAS-independent, luminescence, dose response (AID 1933); assay type: functional; conditions: Homo sapiens
[9] = DRD fibroblast viability loss – cell-based, non-viral oncogenic, luminescence, dose response (AID 1934); assay type: functional; conditions: Homo sapiens
[10] = target: T4, Heat shock factor protein 1 (Mus musculus, UniProt P38532); test: decrease of HSF1-responsive luciferase luminescence – cell-based, NIH3T3, dose retest, confirmation (AID 2382); assay type: functional;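 further: NIH3T3 fibroblasts with HSF1-driven luciferase reporter stressed by proteasome inhibitor MG132; luminescence from HSF1-driven luciferase expression after 8 hours of MG132 stress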
T4 sequence (P38532 whole entry): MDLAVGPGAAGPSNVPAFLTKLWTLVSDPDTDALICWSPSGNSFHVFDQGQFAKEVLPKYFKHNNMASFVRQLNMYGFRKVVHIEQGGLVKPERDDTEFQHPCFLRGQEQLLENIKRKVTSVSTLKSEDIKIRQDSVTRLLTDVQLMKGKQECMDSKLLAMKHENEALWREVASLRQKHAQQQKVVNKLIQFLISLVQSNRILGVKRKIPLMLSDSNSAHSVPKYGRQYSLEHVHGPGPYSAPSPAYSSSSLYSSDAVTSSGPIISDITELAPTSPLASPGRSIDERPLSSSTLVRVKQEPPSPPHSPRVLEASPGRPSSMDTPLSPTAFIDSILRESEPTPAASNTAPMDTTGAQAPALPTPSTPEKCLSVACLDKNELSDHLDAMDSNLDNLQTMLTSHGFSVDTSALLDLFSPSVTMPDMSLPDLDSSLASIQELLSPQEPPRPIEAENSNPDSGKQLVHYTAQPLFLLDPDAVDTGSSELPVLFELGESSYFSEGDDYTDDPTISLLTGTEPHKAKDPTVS

[11] = loss of viability in HepG2 cells – cell-based, CellTiter-Glo, cherry-picked, cytotoxicity control for Shn3 inhibitor project, dose response (AID 624134); assay type: functional
[12] = reduction of Shn3 3'UTR-driven luciferase in osteoblasts – cell-based, Clone20 osteoblasts, firefly luciferase, cherry-picked, dose response (AID 624132); assay type: functional;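 further: firefly luciferase luminescence from reporter carrying the Shn3 3'UTR in osteoblasts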
[13] = Luminescence Cell-Based Dose Retest to Confirm Inhibitors of Cancer Stem Cells. [Related pubchem assays (depositor defined):AID2717, AID2721]; assay type: functional; conditions: Homo sapiens
[14] = non-specific 3'UTR reporter inhibition in Clone20-Shn3RL – cell-based, Renilla luciferase, cherry-picked, counter-screen for Shn3 inhibitor project, dose response (AID 624133); assay type: functional

| SMILES | GI50 (P388/ADR; Mus musculus, P388/ADR) | GI50 (P388; Mus musculus, P388) | GI50 (SN12K1; Homo sapiens, SN12K1) | IC50 [3] | also measured |
| --- | --- | --- | --- | --- | --- |
| CCOc1ccccc1N1CCN(C/C=C/c2ccc(N(C)C)cc2)CC1 |  |  |  |  | AC50 [1]: 15.5 µM (active); IC50 [2]: 75.8 µM (active) |
| Nc1ccn(C2CCC(CO)O2)c(=O)n1 (stereo unspecified) | > 80.4 µM (inactive) | > 100 µM (inactive) | > 100 µM (inactive) |  |  |
| COc1ccc(C(=O)NCC(=O)Nc2ccc(-c3ccccc3)cc2)cc1 |  |  |  | 5.62 µM (active) |  |
| Cc1c2cc[n+](C)cc2c(C)c2c1[nH]c1ccccc12 |  |  |  |  | GI50 (P388/ADR): 70 µM (inactive); GI50 (P388): 1.12 µM (inactive); GI50 (SN12K1): 0.385 µM (active) |
| CC[C@]1(O)C[C@H]2CN(CCc3c([nH]c4ccccc34)[C@@](C(=O)OC)(c3cc4c(cc3OC)N(C)[C@H]3[C@@](O)(C(=O)OC)[C@H](OC(C)=O)[C@]5(CC)C=CCN6CC[C@]43[C@@H]65)C2)C1 | 0.103 µM (active) | 0.000674 µM (active) | 0.000348 µM (active) |  |  |
| CCCCCCCCCOCC(COP(=O)([O-])OCC[N+](C)(C)C)OC (stereo unspecified) | > 100 µM (inactive) | 99.1 µM (inactive) | > 100 µM (inactive) |  |  |
| COc1cccc2cc(-c3cc(=O)oc4cc(C)c(O)cc34)oc12 |  |  |  | 9.12 µM (active) |  |
| CC(/C=C/c1ccco1)=N\NC(=O)c1cc(Cl)ccc1O |  |  |  | 10.7 µM (active) |  |
| CCCCCCc1ccc(O)cc1O [HEXYLRESORCINOL] | 45.2 µM (inactive) | 48.4 µM (inactive) | 37.5 µM (inactive) |  | EC50 [4]: 0.781 µM (active); EC50 [5]: > 30 µM (not active) |
| CC(=O)c1cccc(Nc2c3c(nc4ccccc24)CCC3)c1 |  |  |  |  | EC50 (BJ [6]): 30.6 µM (inconclusive); EC50 (BJ [7]): 1.11 µM (active); EC50 (BJ [8]): 2.21 µM (active); EC50 [9]: 0.898 µM (active) |
| CCn1cc(C(=O)NCc2ccco2)c(=O)c2cc(F)c(N3CCN(C(=O)c4ccco4)CC3)cc21 |  |  |  | 17.6 µM (active) |  |
| CNCCNc1ccc2c3c(nn2CCNCCO)-c2c(O)ccc(O)c2C(=O)c13 | 0.216 µM (active) | 0.000867 µM (active) | 0.0673 µM (active) |  |  |
| Cc1ccc(OCC(=O)NNC(=O)Cn2nnc(-c3ccccc3)n2)cc1 |  |  |  | 12.7 µM (active) |  |
| O=C(O)c1ccc(CN2C(=O)c3cccc4c([N+](=O)[O-])ccc(c34)C2=O)cc1 |  |  |  |  | EC50 (BJ [6]): 12.9 µM (active); EC50 (BJ [7]): 10.6 µM (inconclusive); EC50 (BJ [8]): 9.19 µM (active); EC50 [10]: 6.53 µM (active); EC50 [9]: 10.9 µM (inconclusive) |
| O=C1CNC(=O)N1 [HYDANTOIN] | 706 µM (inactive) | 630 µM (inactive) | > 1120 µM (inactive) |  |  |
| CC(C)NC(=O)OCc1c2c(n(C)c1COC(=O)NC(C)C)-c1ccccc1CC2 | 2 µM (inactive) | 1.79 µM (inactive) | 12 µM (inactive) |  |  |
| O=C1c2cc(O)c(O)cc2OC(c2ccc(O)c(O)c2)C1O (stereo unspecified) |  |  |  |  | AC50 [1]: 12.9 µM (active) |
| O=C1N[C@@H]2C(=C[C@H](O)[C@@H](O)[C@H]2O)c2cc3c(c(O)c21)OCO3 [NARCICLASINE] | 0.045 µM (active) | 0.045 µM (active) | 0.045 µM (active) |  |  |
| CCOC(=O)NC(=O)c1cn(CCN(CCO)C(=O)NCCCCCCNC(=O)N(CCO)CCn2cc(C(=O)NC(=O)OCC)c(=O)[nH]c2=O)c(=O)[nH]c1=O | > 100 µM (inactive) | > 100 µM (inactive) | > 100 µM (inactive) |  |  |
| O=C(Nc1nc2ccccc2s1)C1CCN(S(=O)(=O)c2cc([N+](=O)[O-])ccc2Cl)CC1 |  |  |  | 3.28 µM (active) | EC50 [4]: 0.713 µM (active); EC50 [5]: > 60 µM (not active); AC50 [11]: 50.7 µM (active); AC50 [12]: 3.07 µM (active); AC50 [13]: 25 µM (active); AC50 [14]: 2.18 µM (active) |
